Test systems include BT-549; LXFL 529; DMS-114; SNB-78; DMS-273; XF498; KM-20L2; HOP-18; RXF 631.
What all share (assay): NCI anticancer screen, dose series, 48 h

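Method: 48-hour compound exposure of cells in 96-well plates, five concentrations, linear interpolation of endpoints. GI50: concentration for 50% inhibition of growth.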 Active and inactive are the calls of the source. Rule as the data show it: active = GI50 up to about 1.1 µM and inactive = higher.

For the compound `CCC(C)[C@H]1C(=O)N=C(N)N1C(=O)OCc1ccccc1` (some centres undefined), in the assay with BT-549, the GI50 is > 100 µM (inactive).
As to `Cc1cc2nc3ccccc3n2c2nc(N)ccc12`, the GI50 in the assay with BT-549 was 68.9 µM (inactive).
Same read-out and setting: with `CCN(CC(=O)O)C(=O)c1cccnc1` the figure was > 100 µM (inactive).
Consider `FC(F)(F)C1(Cl)C(Cl)(c2ccccc2)C1(Cl)c1ccccc1` (centres undefined), for which the GI50 in the assay on LXFL 529 is 16.3 µM (inactive); with DMS-114 it was 15.6 µM (inactive); in the assay on SNB-78 it was 17.8 µM (inactive); in the assay on DMS-273, 14.9 µM (inactive); with XF498, 15.7 µM (inactive); in the assay with KM-20L2 it was 13.9 µM (inactive). In addition, the GI50 in the assay with HOP-18 is 11.1 µM (inactive).
On to `O=c1c2c3c(sc2nc2n1N=C(c1ccc([N+](=O)[O-])cc1)CS2)CCCC3`, for which, in the assay on BT-549, the GI50 is > 100 µM (inactive).
Take `COc1cc2c(cc1OC)C(=O)/C(=C/c1ccc(N(C)C)cc1)CC2`: the GI50 with BT-549 is > 10 µM (inactive).
On the same count and under the same terms, with `N#Cc1ccsc1Nc1ccccc1[N+](=O)[O-]` the figure was 38.5 µM (inactive).
In the case of `O=S(=O)(O)Nc1ccc(-c2nc3ccccc3s2)cc1Cl`, the GI50 in the assay with BT-549 is > 100 µM (inactive).
For the compound `CC(=O)NC1CC2Oc3ccc(C)cc3C(C)(O2)C1O` (centres undefined), the GI50 in the assay with DMS-114, with DMS-273, with XF498 and with HOP-18 was > 100 µM (inactive) throughout.
Regarding `C/C(=N\NC(=O)c1ccncc1)c1ccc2ccccc2c1O`, the GI50 in the assay with BT-549 was 10.8 µM (inactive).
Take `FC(F)(F)c1ccc2c(c1)N(CCCNCCN1CCOCC1)c1ccccc1S2`: the GI50 is 12.7 µM (inactive) with LXFL 529; 11.6 µM (inactive) in the assay with SNB-78; 16.8 µM (inactive) in the assay on DMS-273; 3.81 µM (inactive) with XF498; 4.69 µM (inactive) with KM-20L2.
On to `Cc1cccc(C)c1NC(=O)CCc1nnc2s/c(=C\c3ccc(N(C)C)cc3)c(=O)n12`, for which the GI50 was > 100 µM (inactive) in the assay on RXF 631; > 100 µM (inactive) with LXFL 529; 50.6 µM (inactive) in the assay with DMS-114; > 100 µM (inactive) with SNB-78; > 100 µM (inactive) with DMS-273; > 100 µM (inactive) in the assay with XF498. Further, the GI50 in the assay on KM-20L2 was > 100 µM (inactive).
Take `COc1ccc2c(c1)C(=O)CC(C(N)=O)C2` (centres undefined): the GI50 in the assay with BT-549 was > 100 µM (inactive).
On to `COc1ccc2c(c1)CCCN1Cc3cc(OC)c(OC)cc3CC21` (centres undefined), for which the GI50 in the assay on BT-549 was > 100 µM (inactive).
On the same count and under the same terms, the same measure for `O=C(CCN1CCN2c3ccccc3CCC2C1)c1ccc(F)cc1` (centres undefined): 25.1 µM (inactive); for `Cc1nc2ccc(S(=O)(=O)NS(=O)(=O)c3ccc(-c4ccccc4)cc3)cc2c(=O)n1NS(=O)(=O)c1ccc(-c2ccccc2)cc1`: > 100 µM (inactive).
The same measure, in the same setting: the same measure for `C=COC(=O)N1C2CCCC(Cl)(C(C)=O)C1CC2` (centres undefined): > 100 µM (inactive); for `C=CCSc1nnc2cc(CN3CCCC3)c(-c3ccc(Cl)cc3)nn12`: 20.7 µM (inactive).
For the compound `CCC(CC)C(=O)OC[n+]1ccc(-c2c(COC(=O)NC(C)C)c(COC(=O)NC(C)C)c3n2CCC3)cc1`, the GI50 with BT-549 is > 100 µM (inactive).
The same measure, in the same setting: the same measure for `O=C1/C(=c2\c3ccccc3n3c(=O)c4ccccc4nc23)Nc2ccccc21` [CANDIDINE]: > 100 µM (inactive).
As for `O=C(Nc1ccc(/N=N/c2ccccc2)cc1)Sc1ccccc1C(=O)O`, the GI50 in the assay on LXFL 529, in the assay on SNB-78, with DMS-273 and with KM-20L2 was > 100 µM (inactive) each time.
For `C=C(Br)C(C)(Cl)CCC(Br)C(C)(C)Cl` (centres undefined), the GI50 with BT-549 is > 100 µM (inactive).
On the same count and under the same terms, with `CC(C)C(=O)OCN(C)c1nc(N(C)COC(=O)C(C)C)nc(N(C)COC(=O)C(C)C)n1` the figure was 20.8 µM (inactive); with `C/C1=C\C=C(\C(C)C)CC/C(C(=O)O)=C\CC/C(C)=C/CC1` [NEOCROTOCEMBRANEIC ACID], 27.5 µM (inactive).
Take `COc1cc(-c2cc(-c3ccccc3)nc(-c3c(OC)ccc4c(C)cc(=O)oc34)c2)cc(OC)c1OC`: the GI50 in the assay on BT-549 is > 100 µM (inactive).
`CCCCS(=O)(=O)Nc1ccc(Nc2c3ccccc3nc3ccccc23)c(OC)c1`: the GI50 in the assay with SNB-78 was 5.5 µM (inactive); in the assay on DMS-273, 0.395 µM (active); in the assay on XF498 it was 2.19 µM (inactive); in the assay on KM-20L2 it was 3.14 µM (inactive); with HOP-18, 7.52 µM (inactive).
`O=C(O)c1cc(Sc2ccc([N+](=O)[O-])c(C(=O)O)c2)ccc1[N+](=O)[O-]`: the GI50 in the assay with BT-549 is > 100 µM (inactive).
Turning to `O=S(=O)(Nc1ccccc1)c1ccc(-c2c3nc(c(-c4ccc(S(=O)(=O)Nc5ccccc5)cc4)c4ccc([nH]4)c(-c4ccc(S(=O)(=O)Nc5ccccc5)cc4)c4nc(c(-c5ccc(S(=O)(=O)Nc6ccccc6)cc5)c5ccc2[nH]5)C=C4)C=C3)cc1`, in the assay with BT-549, the GI50 is > 31.6 µM (inactive).
The same measure, in the same setting: the same measure for `CCN1CCC(O)(c2ccc(Oc3ccc(C)cc3)cc2)C(C(=O)c2ccc(Oc3ccc(C)cc3)cc2)C1` (centres undefined): 10.6 µM (inactive); for `COc1ccc(C(C2=C(O)COC2=O)c2cc3c(cc2O)OCO3)cc1OC` (centres undefined): > 100 µM (inactive).
Consider `O=CN1CCN(c2ccc3ccc(O)nc3n2)CC1`, for which the GI50 in the assay with BT-549 is > 100 µM (inactive).
With `OC(CBr)C(O)C(O)C(O)CBr` (centres undefined), the GI50 in the assay on DMS-114 is 42.4 µM (inactive); with SNB-78, > 100 µM (inactive); in the assay with BT-549 it was 28.2 µM (inactive); in the assay on DMS-273, 26.6 µM (inactive); in the assay on XF498, 80.5 µM (inactive); with KM-20L2, > 100 µM (inactive). The GI50 in the assay on HOP-18 was > 100 µM (inactive).
`CCN(CC)CC1CCCCCCCCCCC1=O` (centres undefined): the GI50 in the assay on LXFL 529, in the assay on DMS-114, with SNB-78, in the assay on DMS-273, with XF498 and with KM-20L2 was > 100 µM (inactive) each time.
Consider `COC1CC(OC2CCC3(C)C(=CCC4C3C(OC(C)=O)C(OC(=O)CC(C)C)C3(C)C(C(C)=O)CCC43O)C2)OC(C)C1OC1CC(OC)C(OC2CC(OC)C(OC3OC(C)C(OC4OC(CO)C(O)C(O)C4O)C(OC)C3O)C(C)O2)C(C)O1` (centres undefined), for which the GI50 with BT-549 was > 75 µM (inactive).
As to `COc1ccc(-c2c(-c3ccccc3)c(C)nc3[nH]c(=S)[nH]c(=S)c23)cc1OC`, in the assay on BT-549, the GI50 was 42.2 µM (inactive).
Turning to `CSc1nc(NCc2ccccc2)c2cnn(COCCO)c2n1`, the GI50 in the assay on BT-549 was 35.7 µM (inactive).
Turning to `COc1cc(OC)c(OC)cc1/C=C\c1ccnc2ccccc12`, the GI50 is 1.45 µM (inactive) with LXFL 529; 0.649 µM (active) with DMS-114; 1.2 µM (inactive) in the assay on SNB-78; 0.412 µM (active) in the assay with BT-549; 0.317 µM (active) in the assay on DMS-273; 0.948 µM (active) in the assay on KM-20L2.
For `O=C(O)CSC(CC1(c2ccc(Cl)cc2)NC(=O)CS1)c1ccc(Cl)cc1` (centres undefined), the GI50 with BT-549 was > 100 µM (inactive).
Regarding `Cn1nc2ccc3nccc(N(CCO)CCO)c3c2n1`, the GI50 with LXFL 529, with SNB-78, in the assay on DMS-273, in the assay on XF498, with KM-20L2 and with HOP-18 was > 100 µM (inactive) throughout.
On to `COc1cc(C=O)cc(/C=N/c2ccc(Br)cc2)c1O`, for which, in the assay on BT-549, the GI50 was 6.25 µM (inactive).
`[O-][S+]1c2ccccc2N=C(c2ccc(Cl)cc2)CC1c1cccs1` (centres undefined): the GI50 is 14.6 µM (inactive) in the assay on DMS-114; 35 µM (inactive) in the assay on SNB-78; 14.6 µM (inactive) with DMS-273; 20.9 µM (inactive) in the assay on KM-20L2; 29.2 µM (inactive) in the assay with HOP-18.
Consider `O=C1OC(c2cccc(C(F)(F)F)c2)(c2cccc(C(F)(F)F)c2)c2ccc3ccccc3c21`, for which the GI50 in the assay with LXFL 529 is 8.24 µM (inactive); with DMS-114, 6.18 µM (inactive); in the assay on SNB-78 it was > 10 µM (inactive); in the assay on DMS-273 it was > 10 µM (inactive); with XF498 it was > 100 µM (inactive); with KM-20L2, 7.67 µM (inactive). The GI50 in the assay with HOP-18 was > 10 µM (inactive).
In the case of `O=c1[nH]c(C2CCCCC2)nc2ccc(Cl)cc12`, the GI50 in the assay with LXFL 529, in the assay on DMS-114, with SNB-78, in the assay on DMS-273 and with KM-20L2 was > 100 µM (inactive) throughout.
With `Cc1cc(O)c2c(c1)C(=O)c1c(c(O)cc(O)c1-c1c(O)cc(O)c3c1C(=O)c1cc(C)cc(O)c1C3=O)C2=O` [SKYRIN], the GI50 in the assay on DMS-114 is 16.7 µM (inactive); in the assay with SNB-78, 26.9 µM (inactive); with DMS-273, 7.76 µM (inactive); in the assay on XF498 it was 21.1 µM (inactive); with KM-20L2, 16.3 µM (inactive); with HOP-18, 10.4 µM (inactive).
Consider `N=C(N)SCCc1ccncc1`, for which the GI50 in the assay on BT-549 is > 100 µM (inactive).
Take `O=S(OC12CC3CC(CC(C3)C1)C2)c1cc(Cl)cc(Cl)c1OCc1ccccc1` (centres undefined): the GI50 in the assay with RXF 631 was > 100 µM (inactive); in the assay with LXFL 529 it was > 100 µM (inactive); in the assay on DMS-114, 73.8 µM (inactive); in the assay with SNB-78, > 100 µM (inactive); with XF498 it was > 100 µM (inactive).
On to `N=C1/C(=C/c2ccc(F)cc2)C(=O)N=C2SC=NN12`, for which the GI50 in the assay with BT-549 is 94.6 µM (inactive).
The same measure, in the same setting: with `Cc1ccc(P(c2ccc(C)cc2)c2ccc(C)cc2)cc1` the figure was 35.4 µM (inactive).
For the compound `COc1ccc(/C(Cl)=C(\C=O)c2ccc(Cl)c(Cl)c2)cc1`, the GI50 in the assay with LXFL 529 is 5.81 µM (inactive); in the assay with DMS-114, 4.06 µM (inactive); in the assay on SNB-78, 11 µM (inactive); in the assay with DMS-273, 13.1 µM (inactive); in the assay on XF498, 10.8 µM (inactive); with KM-20L2, 11.7 µM (inactive). In addition, in the assay on HOP-18, the GI50 was 14.7 µM (inactive).
Consider `Cc1nc(C)c(C(=O)NNC(=O)C[N+](C)(C)C)cc1C(=O)NNC(=O)C[N+](C)(C)C`, for which the GI50 with BT-549 was > 100 µM (inactive).
As for `CCOC(=O)c1c(N2CCCC2)[nH]c(=O)c(C(c2cccs2)c2c(O)c(C(=O)OCC)c(N3CCCC3)[nH]c2=O)c1O`, the GI50 in the assay on BT-549 was > 100 µM (inactive).
The same measure, in the same setting: the same measure for `Cc1ccc(C(=O)N/N=C2/C(=O)c3c4ccccc4cc4cccc2c34)cc1`: > 100 µM (inactive); for `COc1ccc(N2C(=O)C3c4[nH]c5c(C)cccc5c4C4CCC(C(C)C)CC4C3C2=O)cc1` (centres undefined): 28.6 µM (inactive).
Turning to `CC(C)OP(=O)(OC(C)C)c1nc(-c2ccccc2)n(-c2ccc([N+](=O)[O-])cc2)n1`, the GI50 in the assay on LXFL 529, with DMS-114, in the assay with DMS-273, in the assay with XF498 and in the assay on KM-20L2 was > 100 µM (inactive) each time.

These data come from ChEMBL document CHEMBL1201862, “PubChem BioAssay data set” (2004).
